Experimental data taken from paper PMC9321718 (Pharmaceuticals, 2022).
In brackets after ≈: the same amount, converted by molar mass. Entries after “also recorded” stand apart in the source; their conditions may differ. Read-outs that look alike come from different tables or passages of the source.

Experiments:
E. coli = experiment: Synergy of adjuvant-MCD with Lev-MCD, growth inhibition zones in agar; assay type: cell-based, Escherichia coli; details: for D, diameter of bacterial inhibition zone surrounding Lev–MCD with APAB-MCD: Lev-MCD + X-MCD (1:2), ±0.5; for ϕLev = (D/DLev)^2: ±0.1; for FICI: ±15%; for increase in Lev antibacterial activity / efficacy: growth inhibition diameter measurement in agar, inclusion complexes with MCD
Protocol: (§1) We obtained complex formulations containing adjuvants-MCD and Lev-MCD. These complexes were referred to as enhanced Lev. The synergy effect was studied at a constant concentration of Lev and a variable concentration of an enhancer. […] Based on the D/DLev ratio, the effectiveness of cooperative antibacterial action (ϕ) of the adjuvant and Lev was calculated. The fractional inhibitory concentration (FIC) parameter was introduced: at a fixed Lev concentration, the FIC of adjuvant corresponds to the minimum fractional adjuvant concentration at which the antibacterial effect was still manifest (MICadjuvant in the presence of Lev). The fractional inhibitory concentration index (FICI) characterizes the ratio of the active Lev and adjuvant concentrations to the MIC values of these substances individually: FICI=[Lev]/MIC(Lev)[…][adjuvant]/MIC(adjuvant) (see Section 3).
(§2) The FICI was interpreted as: synergism (<0.35), additivity (0.35–0.75), indifference (0.75–1.4), or antagonism (>1.4). FICI is designed to determine the type of Lev interaction with adjuvants.
(§3) The study of the antibacterial effect of Lev and adjuvants was carried out by (a) agar diffusion test and (b) broth micro-dilution method. (a) A measured 500 µL of 100-fold culture dilution was evenly distributed over a solid nutrient medium (LB, pH 7.2) on a Petri dish. After 20 min, agar disks with a diameter of 9 mm were removed from the cups and 50 µL of the test samples were placed in the formed wells at the required concentration in a sterile PBS buffer (see Section 3.3 (2)). After 30 min, Petri dishes were placed in a 37 °C thermostat. […] Minimum inhibitory concentrations (MICs) are determined as the infimum of multiple concentrations of an antimicrobial that inhibits the visible growth of a microorganism after overnight incubation. (b) According to the standard broth micro-dilution method, 200 µL of the overnight culture (5 × 10^6 CFU) was placed into a 96 micro-titer plate wells. Then 50 µL of tested samples was added. The range of tested Lev concentration was 4–200 ng/mL, adjuvants concentration was in the range of 0.008–2 mg/mL. […] The dependence of CFU (determined by A600) on the concentration of Lev, APAB or terpenoid (briefly X) was approximated according to the Boltzmann equation (Origin software): CFU = (control CFU)/(1 + exp(([X] − MIC50)/constant value)). […] In other words, the concentration at which the ordinate value (CFU) is equal to 50 or 10% of the control sample minus the background.
(§4) The FICI was interpreted as: synergism (<0.35), additivity (0.35–0.75), indifference (0.76–1.4), or antagonism (>1.4). The essence of this expression is to calculate the average change in the effective concentration compared to MIC. Note that the most important parameter corresponds to a decrease in MIC of Lev. However, FICI is designed to determine the type of interaction Lev with adjuvants.

B. subtilis = experiment: as above; assay type: cell-based, Bacillus subtilis; details: for D, diameter of bacterial inhibition zone surrounding Lev–MCD with APAB-MCD: Lev-MCD + X-MCD (1:2), ±0.5; for ϕLev = (D/DLev)^2: ±0.1
Protocol: as §1, §2, §3, §4

B. subtilis (NCIB 8054) = experiment: Agar diffusion test, MIC; assay type: cell-based, Bacillus subtilis; details: Bacillus subtilis
Protocol: The strains used in this study were Escherichia coli (NCIB 12210) and Bacillus subtilis (NCIB 8054) from National Resource Center All-Russian collection of industrial microorganisms SIC “Kurchatov Institute”). The culture was cultivated for 18–20 h at 37 °C to CFU ≈ 5 × 10^6 – 8 × 10^6 (determined by A600) in liquid nutrient medium Luria–Bertani (pH 7.2): E. coli—without stirring, B. subtilis—with stirring 180 rpm.
The study of the antibacterial effect of Lev and adjuvants was carried out by (a) agar diffusion test and (b) broth micro-dilution method. (a) A measured 500 µL of 100-fold culture dilution was evenly distributed over a solid nutrient medium (LB, pH 7.2) on a Petri dish. After 20 min, agar disks with a diameter of 9 mm were removed from the cups and 50 µL of the test samples were placed in the formed wells at the required concentration in a sterile PBS buffer (see Section 3.3 (2)). After 30 min, Petri dishes were placed in a 37 °C thermostat. After 24 h, the diameters of the growth inhibition zones were measured. Minimum inhibitory concentrations (MICs) are determined as the infimum of multiple concentrations of an antimicrobial that inhibits the visible growth of a microorganism after overnight incubation. (b) According to the standard broth micro-dilution method, 200 µL of the overnight culture (5 × 10^6 CFU) was placed into a 96 micro-titer plate wells. Then 50 µL of tested samples was added. The range of tested Lev concentration was 4–200 ng/mL, adjuvants concentration was in the range of 0.008–2 mg/mL. Optical density measurements at 600 nm were taken at various times (0, 3, and 18 h) to determine the number of cells. The dependence of CFU (determined by A600) on the concentration of Lev, APAB or terpenoid (briefly X) was approximated according to the Boltzmann equation (Origin software): CFU = (control CFU)/(1 + exp(([X] − MIC50)/constant value)). MIC50 and MIC90 are defined as concentrations at which the inhibition of bacterial growth by 50 and 90% is noticeable, respectively. In other words, the concentration at which the ordinate value (CFU) is equal to 50 or 10% of the control sample minus the background.

[1] = B. subtilis, CLev 0.4 μg/mL, ±15%
[2] = B. subtilis, CLev 0.7 μg/mL, ±15%
[3] = B. subtilis, CLev 1.5 μg/mL, ±15%
[4] = NCIB8054, B. subtilis 7 × 10^6 CFU, agar diffusion test, inclusion complexes with MCD, LB pH 7.2, 37 °C, 20 h, read-out: MIC

Row | Compound | D, diameter of bacterial inhibition zone surrounding Lev–MCD with APAB-MCD (E. coli; E. coli, CLev 0.15 μg/mL) | ϕLev = (D/DLev)^2 (E. coli; E. coli, CLev 0.15 μg/mL) | FICI (E. coli; E. coli, CLev 0.15 μg/mL) | FICadjuvant (B. subtilis; B. subtilis, CLev 0.4 μg/mL) | Type of Interaction between Lev and X (B. subtilis; B. subtilis, CLev 0.4 μg/mL) | D, diameter of bacterial inhibition zone surrounding Lev–MCD with APAB-MCD (B. subtilis; B. subtilis, CLev 0.4 μg/mL) | ϕLev = (D/DLev)^2 (B. subtilis; B. subtilis, CLev 0.4 μg/mL) | FICI (B. subtilis; [1]) | FICadjuvant (B. subtilis; B. subtilis, CLev 0.7 μg/mL) | Type of Interaction between Lev and X (B. subtilis; B. subtilis, CLev 0.7 μg/mL) | D, diameter of bacterial inhibition zone surrounding Lev–MCD with APAB-MCD (B. subtilis; B. subtilis, CLev 0.7 μg/mL) | ϕLev = (D/DLev)^2 (B. subtilis; B. subtilis, CLev 0.7 μg/mL) | FICI (B. subtilis; [2]) | FICadjuvant (B. subtilis; B. subtilis, CLev 1.5 μg/mL) | Type of Interaction between Lev and X (B. subtilis; B. subtilis, CLev 1.5 μg/mL) | D, diameter of bacterial inhibition zone surrounding Lev–MCD with APAB-MCD (B. subtilis; B. subtilis, CLev 1.5 μg/mL) | MIC (B. subtilis (NCIB 8054); [4]) | D, diameter of bacterial inhibition zone surrounding Lev–MCD with APAB-MCD (E. coli; E. coli, CLev 0.1 μg/mL) | ϕLev = (D/DLev)^2 (E. coli; E. coli, CLev 0.1 μg/mL) | FICI (E. coli; E. coli, CLev 0.1 μg/mL) | further results
1 | C=CCc1ccc2c(c1)OCO2 [Safrole] | 14.5 mm | 2.1 | 0.09 | 0.17 ± 0.02 mg/mL | Synergism (synergism (<0.35)) | 14 mm | 1.4 | 0.08 | 0.33 ± 0.03 mg/mL | Synergism (synergism (<0.35)) | 16 mm | 1.1 | 0.28 | 0.15 ± 0.02 mg/mL | Synergism (synergism (<0.35)) | 20 mm | 3900 µg/mL (≈ 24 mM) | – | – | – | MICLev in the presence of adjuvant (E. coli): 0.015 to 0.02 µg/mL; ϕLev = (D/DLev)^2 (B. subtilis; B. subtilis, CLev 1.5 μg/mL): 1.4; FICI (B. subtilis; [3]): 0.27; FICI (B. subtilis; B. subtilis, with Lev): 0.08–0.11
2 | CC1CCC(C(C)C)C(O)C1 (stereo not drawn) [Menthol] | 14 mm | 2.0 | 0.15 | – | – | – | – | – | – | – | – | – | – | – | – | – | 2600 µg/mL (≈ 16.6 mM) | 13.5 mm | 1.7 | 0.02 | decrease of MICLev in the presence of adjuvant (E. coli; E. coli): up to twice; increase in Lev antibacterial activity / efficacy (E. coli): two–three-fold; FICadjuvant (B. subtilis; B. subtilis, CLev 0.5 μg/mL): 0.17 ± 0.01 mg/mL; Type of Interaction between Lev and X (B. subtilis; B. subtilis, CLev 0.5 μg/mL): Synergism (synergism (<0.35)); D, diameter of bacterial inhibition zone surrounding Lev–MCD with APAB-MCD (B. subtilis; B. subtilis, CLev 0.5 μg/mL): 18.5 mm; ϕLev = (D/DLev)^2 (B. subtilis; B. subtilis, CLev 0.5 μg/mL): 2.4; FICI (B. subtilis; B. subtilis, CLev 0.5 μg/mL, ±15%): 0.11; FICadjuvant (B. subtilis; B. subtilis, CLev 1 μg/mL): 0.17 ± 0.01 mg/mL; Type of Interaction between Lev and X (B. subtilis; B. subtilis, CLev 1 μg/mL): Synergism (synergism (<0.35)); D, diameter of bacterial inhibition zone surrounding Lev–MCD with APAB-MCD (B. subtilis; B. subtilis, CLev 1 μg/mL): 18 mm; ϕLev = (D/DLev)^2 (B. subtilis; B. subtilis, CLev 1 μg/mL): 1.3; FICI (B. subtilis; B. subtilis, CLev 1 μg/mL, ±15%): 0.23; efficiency parameter ϕ (B. subtilis; B. subtilis, adjuvant-MCD with Lev-MCD): 2.4; FICI (B. subtilis; B. subtilis, with Lev): 0.08–0.11; MIC (B. subtilis (NCIB 8054); NCIB8054, B. subtilis, agar diffusion test, read-out: MIC): 2.6 µg/mL (≈ 0.0166 mM)
3 | C=CCc1ccc(O)c(OC)c1 [Eugenol, 4-allyl-2-methoxyphenol] | 15 mm | 2.3 | 0.05 | 0.10 ± 0.01 mg/mL | Synergism (synergism (<0.35)) | 14.5 mm | 1.5 | 0.16 | 0.2 ± 0.02 mg/mL | Additivity (additivity (0.35–0.75)) | 16 mm | 1.2 | 0.56 | 0.10 ± 0.01 mg/mL | Additivity (additivity (0.35–0.75)) | 19 mm | 1000 µg/mL (≈ 6.09 mM) | 20 mm | 3.3 | 0.10 | D, diameter of bacterial inhibition zone surrounding Lev–MCD with APAB-MCD (E. coli; E. coli, CLev 0.03 μg/mL): 14 mm; ϕLev = (D/DLev)^2 (E. coli; E. coli, CLev 0.03 μg/mL): 2.0; FICI (E. coli; E. coli, CLev 0.03 μg/mL): 0.30; D, diameter of bacterial inhibition zone surrounding Lev–MCD with APAB-MCD (E. coli; E. coli, CLev 0.05 μg/mL): 17 mm; ϕLev = (D/DLev)^2 (E. coli; E. coli, CLev 0.05 μg/mL): 2.9; FICI (E. coli; E. coli, CLev 0.05 μg/mL): 0.08; D, diameter of bacterial inhibition zone surrounding Lev–MCD with APAB-MCD (E. coli; E. coli, CLev 0.5 μg/mL): 26 mm; ϕLev = (D/DLev)^2 (E. coli; E. coli, CLev 0.5 μg/mL): 1.3; FICI (E. coli; E. coli, CLev 0.5 μg/mL): 1.3; amplification effect of adjuvant (E. coli; E. coli, at minimal Lev concentrations): 3 fold; MICLev in the presence of adjuvant (E. coli; E. coli, reduced from 0.10 μg/mL): 0.015 to 0.02 µg/mL; decrease of Lev MIC (E. coli; conclusions, bacterium not stated): 3–4 times; increase in Lev antibacterial activity / efficacy (E. coli; listed as EG): over three-fold; also recorded: two–three-fold; ϕLev = (D/DLev)^2 (B. subtilis; B. subtilis, CLev 1.5 μg/mL): 1.2; FICI (B. subtilis; [3]): 0.60; type of interaction with Lev (B. subtilis; Gram-positive cells (B. subtilis)): additivity
4 | C=CCc1cc(OC)c2c(c1OC)OCO2 [Apiol] | 14 mm | 2.0 | 0.20 | – | – | – | – | – | – | – | – | – | – | – | – | – | – | 14.5 mm | 1.6 | 0.35 | decrease of MICLev in the presence of adjuvant (E. coli; E. coli): up to twice; MIC (B. subtilis (NCIB 8054); NCIB8054, 20 h, pH 7.2): 5300 µg/mL (≈ 23.8 mM)
